Test results published in US20230255975A1, “METHODS FOR TREATING CANCER WITH COMBINATION THERAPIES” (Celgene Corporation, priority 2020, published 2023).

Key:
[1] = tested on: several MM cell lines; test: Proliferation of MM cell lines with CDK7 inhibitor; type: cell-based; conditions: data not shown
Procedure: (§1) Proliferation and viability assays: Cell growth curves were determined by monitoring the viability of cells with Trypan blue exclusion on a Vi-Cell-XR (Becton Dickinson, Franklin Lakes, N.J., USA). Proliferation assays were performed in triplicate at least three times (n=3) using (3H)-thymidine incorporation. All data were plotted and analyzed using GraphPad Prism 7 (GraphPad Software, La Jolla, Calif., USA) software, represented as the mean with an error determined as ±s.d.
Effects of BRD4 inhibitors on CKS1B and E2F2 and their target genes. CKS1B and E2F2 have been enlisted as super-enhancer (SE) associated genes in MM (Loven, J., et al., Cell, 2013, 153(2): p. 320-34). In order to pharmacologically target CKS1B and E2F2, the BET inhibitors JQ1 and Compound A were utilized in MDMS8-like and H929 cell lines. […] BET inhibitors also promoted a decrease in Cereblon substrates, Ikaros, Aiolos and c-Myc levels. Further, an increase in the levels of P27 was observed, which is a negative regulator of CKS1B signaling. Immunofluorescence staining was performed to analyze the localization and expression of CKS1B and E2F2 in response to JQ1 and confirmed the decrease in their nuclear expression in MDMS8-like cells (data not shown). Since BET inhibitors mediate their changes mainly at transcript levels, transcript levels of CKS1B and E2F2 were analyzed in response to BET inhibitors. […]

[2] = tested on: K12PE cell line; test: Proliferation assay; type: cell-based; conditions: for Synergy analysis (Calcusyn) of combination with JQ1 on proliferation: K12PE cells, in combination with JQ1
Procedure: as §1
as §1, with “assay.” for “assays:”, “Cell lines” for “Proliferation assays”, “plated” for “performed”, “in 96-well round-bottom plates with the indicated drug concentrations or knockdown cells. […]” for “at least three times (n=3) using (3H)-thymidine incorporation.”

[3] = tested on: AMO1 cell line; test: Proliferation assay; type: cell-based; conditions: AMO1; for Synergy with trametinib on proliferation: in combination with trametinib
Procedure: as §1
as §1, with “assay.” for “assays:”, “Cell lines” for “Proliferation assays”, “plated” for “performed”, “in 96-well round-bottom plates with the indicated drug concentrations or knockdown cells. […]” for “at least three times (n=3) using (3H)-thymidine incorporation.”

[4] = tested on: K12PE-PR cell line; test: Proliferation assay; type: cell-based; conditions: Pom resistant K12PE-PR; in combination with JQ1
Procedure: as §1
as §1, with “assay.” for “assays:”, “Cell lines” for “Proliferation assays”, “plated” for “performed”, “in 96-well round-bottom plates with the indicated drug concentrations or knockdown cells. […]” for “at least three times (n=3) using (3H)-thymidine incorporation.”

[5] = tested on: AMO1-PR (pomalidomide resistant) cell line; test: Proliferation assay; type: cell-based; conditions: for Synergy with trametinib on proliferation: in combination with trametinib
Procedure: as §1
as §1, with “assay.” for “assays:”, “Cell lines” for “Proliferation assays”, “plated” for “performed”, “in 96-well round-bottom plates with the indicated drug concentrations or knockdown cells. […]” for “at least three times (n=3) using (3H)-thymidine incorporation.”

[6] = tested on: H929 cell line; test: Proliferation assay; type: cell-based; conditions: Homo sapiens, NCI-H929, 1q amp 3-4×, BRD4/BET inhibition, read-out: IC50
Procedure: as §1
(§2) Proliferation and viability assay. Cell growth curves were determined by monitoring the viability of cells with Trypan blue exclusion on a Vi-Cell-XR (Becton Dickinson, Franklin Lakes, N.J., USA). Cell lines were plated in triplicate in 96-well round-bottom plates with the indicated drug concentrations or knockdown cells. Proliferation assays were performed in triplicate at least three times (n=3) using either the WST-1 tetrazolium salt (Roche Applied Science) reagent used according to the manufacturer's specifications or by (3H)-thymidine incorporation as previously described (Bjorklund et al., Blood Cancer Journal 5, e354, 2015). All data were plotted and analyzed using GraphPad Prism 7 (GraphPad Software, La Jolla, Calif., USA) software, represented as the mean with an error determined as ±s.d.

[7] = tested on: Mc-CAR cell line; test: Proliferation assay; type: cell-based; conditions: McCAR; 1q amp normal; BRD4/BET inhibition; read-out: IC50
Procedure: as §1, §2

[8] = tested on: MM1.S cell line; test: Proliferation assay; type: cell-based; conditions: Homo sapiens, 1q amp 3×, BRD4/BET inhibition
Procedure: as §1

[9] = tested on: U266 cell line; test: Proliferation assay; type: cell-based; conditions: Homo sapiens, U-266, 1q amp 3×, BRD4/BET inhibition, read-out: IC50
Procedure: as §1

[10] = tested on: DF15/PR cell line; test: Proliferation assay; type: cell-based; conditions: 1q amp 3×, BRD4/BET inhibition
Procedure: as §1

[11] = tested on: KMS11 cell line; test: Proliferation assay; type: cell-based; conditions: Homo sapiens, KMS-11, 1q amp 6-8×, BRD4/BET inhibition
Procedure: as §1

[12] = tested on: CKS1B and E2F2 in MDMS8-like (DF15PR) cell line; test: Immunoblot of CKS1B and E2F2 after BET inhibitors; type: cell-based; conditions: FIG. 10A
Excerpt: (§3) Effects of BRD4 inhibitors on CKS1B and E2F2 and their target genes. CKS1B and E2F2 have been enlisted as super-enhancer (SE) associated genes in MM (Loven, J., et al., Cell, 2013, 153(2): p. 320-34). In order to pharmacologically target CKS1B and E2F2, the BET inhibitors JQ1 and Compound A were utilized in MDMS8-like and H929 cell lines. […] BET inhibitors also promoted a decrease in Cereblon substrates, Ikaros, Aiolos and c-Myc levels. Further, an increase in the levels of P27 was observed, which is a negative regulator of CKS1B signaling. Immunofluorescence staining was performed to analyze the localization and expression of CKS1B and E2F2 in response to JQ1 and confirmed the decrease in their nuclear expression in MDMS8-like cells (data not shown). Since BET inhibitors mediate their changes mainly at transcript levels, transcript levels of CKS1B and E2F2 were analyzed in response to BET inhibitors. In both MDMS8-like and H929 cell lines, BET inhibitors promoted a decrease in transcript levels of CKS1B and E2F2 (FIG. 10C, FIG. 10D, FIG. 10E, and FIG. 10F). […] To ascertain the SE mediated regulation of CKS1B and E2F2, CDK7 inhibitors targeting SE-associated complexes in MM cell lines were utilized.

[13] = tested on: CKS1B and E2F2 in H929 cell line; test: Immunoblot of CKS1B and E2F2 after BET inhibitors; type: cell-based; conditions: FIG. 10B
Excerpt: as §3

[14] = tested on: acute myeloid leukemia (AML); conditions: administered alone; cited from earlier work
[15] = tested on: AMO1 cells; test: Apoptosis by Annexin V and Topro staining; type: cell-based; conditions: AMO-1 cells
Procedure: (§4) Flow cytometry: Annexin-V Alexa Fluor 488-conjugated antibody (Thermo Scientific, Waltham, Mass., USA) and To-Pro-3 (Thermo Scientific, Waltham, Mass., USA) were used according to the manufacturer's protocol and processed using Flow Jo software for at least three independent experiments. For cell cycle analysis, cells were stained with Propidium Iodide (PI) staining kit (Abcam, Cambridge, Mass., USA) and analysis was performed on Flow Jo V10 software. Staining of mitotic marker pHH3-Ser^10 was also performed by pHH3-Ser^10 and PI dual staining.
(§5) The PLK1 inhibitor BI2536 and Compound 5 were tested for their activity as individual agents and in combination in AMO1 parental and AMO1-PR cell lines. […] Changes in apoptosis were analyzed using the single agent treatments and their combination using Annexin V and Topro staining. […] Changes in Ikaros and pro-survival signaling in these cell lines was analyzed in response to BI2536 and Compound 5 after 24 and 72 hours of treatment (FIG. 5K).

[16] = tested on: AMO1-PR cells; test: Apoptosis by Annexin V and Topro staining; type: cell-based
Procedure: as §4, §5

[17] = tested on: AMO1 control shRNA cells; test: Proliferation assay in control shRNA cells; type: cell-based; conditions: Homo sapiens, AMO1, read-out: IC50, proliferation
Procedure: as §2
(§6) To further confirm the synergistic effect, shRNA knockdown was combined with either Compound 5 or Compound 6 treatment. Expression of control and NEK2 shRNA in AMO1 cell lines was induced, followed by exposure of the cells to increasing concentrations of Compound 5 and Compound 6. The results were measured through a proliferation assay.

[18] = tested on: AMO1 NEK2 shRNA (NEK2 knocked-down) cells; test: Proliferation assay in NEK2 knocked-down cells; type: cell-based
Procedure: as §2, §6

CN(C)C/C=C/C(=O)Nc1ccc(C(=O)Nc2cccc(Nc3ncc(Cl)c(-c4c[nH]c5ccccc45)n3)c2)cc1 [THZ1]
proliferation [1]: potent decrease in proliferation

Nc1cccc2c1CN(C1CCC(=O)NC1=O)C2=O (centres unmarked) [Compound 2, 3-(4-amino-1-oxo-1,3 dihydro-isoindol-2-yl)-piperidine-2,6-dione]
Synergy analysis (Calcusyn) of combination with JQ1 on proliferation [2]: synergistic
Synergy with trametinib on proliferation [3]: strong synergy
Synergy of combination with JQ1 on proliferation [4]: synergistically decreased proliferation
Synergy with trametinib on proliferation [5]: strong synergy

Cn1cc(-c2cc(S(C)(=O)=O)ccc2OCC2CC2)c2ccccc2c1=O [Compound A, 4-[2-(cyclopropylmethoxy)-5-(methanesulfonyl)phenyl]-2-methylisoquinolin-1(2H)-one]
IC50 [6]: 54.1 nM
IC50 [7]: 93.4 nM
IC50 [8]: 28.2 nM
IC50 [9]: 33.9 nM
IC50 [10]: 35.9 nM
IC50 [11]: 40.3 nM
protein levels of CKS1B and E2F2 [12]: dose and time dependent decrease
protein levels of CKS1B and E2F2 [13]: dose and time dependent decrease

CT-011: anti-PD-1 antibody, a humanized antibody
response in treating acute myeloid leukemia (AML) at relapse [14]: failed to show response

Cc1sc2c(c1C)C(c1ccc(Cl)cc1)=N[C@@H](CC(=O)OC(C)(C)C)c1nnc(C)n1-2 [JQ1, (S)-tert-butyl 2-(4-(4-chlorophenyl)-2,3,9-trimethyl-6H-thieno[3,2-f][1,2,4]triazolo[4,3-a][1,4]diazepin-6-yl)acetate]
IC50 [6]: 51.7 nM
IC50 [7]: 83.5 nM
IC50 [8]: 15.2 nM
IC50 [9]: 14.8 nM
IC50 [10]: 37.8 nM
IC50 [11]: 36.2 nM
protein levels of CKS1B and E2F2 [12]: dose and time dependent decrease
protein levels of CKS1B and E2F2 [13]: dose and time dependent decrease

CC[C@@H]1C(=O)N(C)c2cnc(Nc3ccc(C(=O)NC4CCN(C)CC4)cc3OC)nc2N1C1CCCC1 [BI2536, (R)-4-((8-cyclopentyl-7-ethyl-5-methyl-6-oxo-5,6,7,8-tetrahydropteridin-2-yl)amino)-3-methoxy-N-(1-methylpiperidin-4-yl)benzamide]
Activity in biallelic P53 cell line compared to P53-wild type cells ([2]; K12PE vs AMO1, FIG. 7B): higher activity
late apoptosis ([15]; vehicle 2.24%): 4.25%
early apoptosis ([15]; vehicle 2.69%): 10.9%
late apoptosis ([16]; vehicle 2.77%): 7.55%
early apoptosis ([16]; vehicle 3.82%): 23.2%

N#Cc1ccc(N2CCN(Cc3ccc(COc4cccc5c4CN([C@H]4CCC(=O)NC4=O)C5=O)cc3)CC2)c(F)c1 [Compound 6, (S)-4-(4-(4-(((2-(2,6-dioxopiperidin-3-yl)-1-oxoisoindolin-4-yl)oxy)methyl)benzyl)piperazin-1-yl)-3-fluorobenzonitrile]
IC50 [17]: 29.6 nM
IC50 ([18]; Homo sapiens, NEK2 knocked-down AMO1 cells): 2.89 nM
Increase of activity by NEK2 knockdown in comparison to control shRNA cell line ([18]; IC50 control cells vs NEK2 knocked-down cells): 10 fold
Synergy analysis (Calcusyn) of combination with JQ1 on proliferation [2]: synergistic
Synergy (Calcusyn) with NEK2 inhibitors (JH295 and rac-CCT 250863) on proliferation ([3]; NEK2 inhibitor 0.016-10 μM): strong synergy
Combination analysis (Calcusyn) with YM155 on proliferation ([3]; in combination with YM155): synergistic activity
Synergy with trametinib on proliferation [3]: strong synergy
Synergy of combination with JQ1 on proliferation [4]: synergistically decreased proliferation
Synergy (Calcusyn) with NEK2 inhibitors (JH295 and rac-CCT 250863) on proliferation ([5]; NEK2 inhibitor 0.016-10 μM): strong synergy
Combination analysis (Calcusyn) with YM155 on proliferation ([5]; in combination with YM155): synergistic activity
Synergy with trametinib on proliferation [5]: strong synergy
